# Assay results reported in article PMC2914821 (Biochemistry, 2010).
# Like-named read-outs stand apart in the source and are kept apart here.
# B1: β1(1–194): truncated sGC β1 heme domain corresponding to the H-NOX domain (protein, UniProt Q02153 1-194, looked up, fragment)
# chain: MYGFVNHALELLVIRNYGPEVWEDIKKEAQLDEEGQFLVRIIYDDSKTYDLVAAASKVLNLNAGEILQMFGKMFFVFCQESGYDTILRVLGSNVREFLQNLDALHDHLATIYPGMRAPSFRCTDAEKGKGLILHYYSEREGLQDIVIGIIKTVAQQIHGTEIDMKVIQQRNEECDHTQFLIEEKESKEEDFYED
# modifications: H-NOX domain
# B2: β2(1–217): truncated sGC β2 heme domain (protein, UniProt O75343 1-217, looked up, fragment)
# chain: MSGYDRMLRTLGGNLMEFIENLDALHSYLALSYQEMNAPSFRVERGADGKMFLHYYSDRSGLCHIVPGIIEAVAKDFFDIDVIMDILDMNEEVERTGKKEHVVFLIVQKAHRKMRKTKPKRLQDSQGMERDQEALQAAFLKMKEKYLNVSACPVKKSHWDVVRSIVMFGKGHLMNTFEPIYPERLWIEEKTFCNAFPFHIVFDESLQVKQARVNIQK
# modifications: heme domain
# Key:
# ferrous Ns H-NOX = experiment: CO and NO binding kinetics to ferrous Ns H-NOX; set-up: species or system Nostoc sp; settings: for kOFF: 6c-CO complex / 1st 6c-NO complex, 20 – 25 °C
# sGC = settings: cited from earlier work; for Kd / kOFF: sGC
# ferric sGC = settings: cited from earlier work
# [1] = ferrous, 37 °C; cited from earlier work
molecule,measurement,setting,value
"[C-]#[O+] [CO, carbon monoxide]","rate of reaction with CO, Ns H-NOX relative to sGC",ferrous Ns H-NOX,100 fold
same,second-order rate constant of CO binding,"ferrous Ns H-NOX; 5 µM ferrous Ns H-NOX, [CO] 25 to 166 µM, 24 °C, two separately purified samples",2 – 3 × 10^6 M^−1s^−1
same,"Kd for CO binding, ratio koff/kon",ferrous Ns H-NOX; 3.6 s^-1/3.0 µM^−1s^−1,1.2 µM
same,CO association rate constant (free linear fit),ferrous Ns H-NOX; 24 °C,2.9e+06 M⁻¹ s⁻¹
same,CO dissociation rate constant (koff) from y-axis intercept of kobs versus [CO],ferrous Ns H-NOX; 24 °C,23 s⁻¹
same,kOFF,ferrous Ns H-NOX; Ns H-NOX,3.6 s⁻¹
same,Kd,sGC; 4 °C,260 µM
same,kOFF,sGC; 4 °C,10.7 s⁻¹
"[N-]=[N+]=[N-] [N3^−, azide]",observed rate constant of azide binding,ferric Ns H-NOX,~ 0.015 s^−1
same,Kd,ferric sGC,26000 µM
"O=O [O2, oxygen]",O2 binding (comment),sGC,"No O2 binding at 1 atm, 10 °C"
nitric oxide [NO],fraction of 5c NO-heme in final NO-heme complex,"ferrous Ns H-NOX; EPR, large excess (1 atm) of NO gas, wild type Ns H-NOX",~ 40%
same,overall equilibrium affinity for NO relative to CO,ferrous Ns H-NOX; Ns H-NOX,4 orders of magnitude
same,kOFF,ferrous Ns H-NOX; Ns H-NOX,0.05 s⁻¹
same,"first order rate constant of 6c-NO to 5c-NO conversion, first phase","ferrous Ns H-NOX; excess NO, independent of [NO]",~ 7 s^−1
same,"first order rate constant of 6c-NO to 5c-NO conversion, second phase","ferrous Ns H-NOX; excess NO, independent of [NO]",0.3 s⁻¹
same,NO association rate constant for first 6c-NO complex,"ferrous Ns H-NOX; flow-flash, 436 and 418 nm, 24 °C",200 – 400 µM^−1s^−1 and ≈ 300 µM^−1s^−1
same,"NO dissociation first order rate constant, minor slow phase",ferrous Ns H-NOX; initial 6c-NO complex mixed with 0.5 mM CO and 25 mM dithionite,0.007 s⁻¹
same,Kd,ferrous Ns H-NOX; read-out: apparent Kd for first NO binding step,~0.00017 µM
same,kOFF,"sGC; 5c (off), 10 °C",0.0006 s⁻¹
same,Kd,"sGC; 10 °C, calculated as kOFF/kON",4.2e-06 µM
B1,rate of autooxidation,[1],4.3 h⁻¹
B2,rate of autooxidation,[1],0.18 h⁻¹
